Literature values, collected in patent US20260199417A1, “OPHTHALMIC FORMULATION FOR TOPICAL USE CONTAINING HELENALIN, 11A,13-DIHYDRO HELENALIN AND FLAVONOIDS FROM ARNICA MONTANA EXTRACT AND SODIUM HYALURONATE, AND USE THEREOF BY HUMANS TO TREAT DRY EYE SYNDROME” (CENTRO DE RETINA MÉDICA Y QUIRÚRGICA, S.C., priority 2022, published 2026).

System: NF kappa-B
Conditions: T cells, B cells, and epithelial cells

Structure (SMILES) | Activation of NF kappa-B
C[C@@H]1C[C@H]2OC(=O)[C@@H](C)[C@H]2[C@H](O)[C@]2(C)C(=O)C=C[C@@H]12 [11-α, 13-dihydrohelenalin] | inhibited
C=C1C(=O)O[C@@H]2C[C@@H](C)[C@@H]3C=CC(=O)[C@@]3(C)[C@@H](O)[C@H]12 [helenalin] | inhibited
